Experimental data published in US6443945B1, “Laser assisted pharmaceutical delivery and fluid removal” (Transmedica International, Inc., priority 1993, dated 2002).

Columns and labels:
[1] = Topical alprostadil patch on laser-perforated penis skin; format: in vivo, human; conditions: three 2 mm spots, 5 J/cm^2; patch held 45 minutes
Excerpt: The duration of the pulse was approximately 300 μs. The spot size was approximately 2 mm, with an energy fluence of 5 J/cm^2. Single pulses were used. Three 2 mm diameter spots were created on a flaccid penis. Subsequent to ablation a pharmaceutical preparation of alprostadil (Caverject from Pharmacia & Upjohn, Kalamazoo, Mich.) was applied to a small patch consisting of tissue paper. The patch was applied to the multiple perforated areas of the skin on the then flaccid penis and held there with adhesive tape for 45 minutes. After approximately 35 minutes, the patient obtained an erection that was sustained for more than 1 hour.

[2] = Permeation of radiolabelled corticosterone or DNA through laser-irradiated human skin in diffusion cells; format: in vitro ADME; conditions: 2 mm spot, donor removed after 15 minutes
Protocol: Pieces of human skin were placed in diffusion cells and irradiated with a single pulse of radiant energy produced by an Er:YAG laser. The spot size was 2 mm and the energy of the pulse was measured with a calibrated energy meter. After irradiation, the diffusion cells were placed in a 37 degrees Celsius heating block. Phosphate buffered saline was added to the receptor chamber below the skin and a small stir bar was inserted in the receptor chamber to keep the fluid continually mixed. Control skin was left unirradiated. Small volumes of radiolabelled compounds (either corticosterone or DNA) were then added to the donor chamber and left for 15 minutes before being removed (in the case of corticosterone) or were left for the entire duration of the experiment (in the case of the DNA). Samples were then taken from the receptor chamber at various times after application of the test compound and measured in a scintillation or gamma counter.

[3] = In vivo blanching assay (chromameter skin redness) on laser-irradiated forearm spots; parameters: species or system human
Excerpt: In the case of the blanching assay, baseline skin color (redness) measurements were then taken of each spot using a Minolta CR-300 Chromameter (Minolta Inc., NJ). The Er:YAG laser was then used to ablate six 2 mm spots on one forearm, at energies of 40, 80 and 120 mJ. A spot (negative calorimeter control) directly adjacent to the laser irradiated spots remained untouched. Subsequently, a thin film of 1% hydrocortisone ointment was applied to six of the lased spots on the treatment arm. One untouched spot on the contralateral arm was administered a thin layer of Diprolene (β-methasone), which is a strong steroid that can permeate the intact stratum corneum in an amount sufficient to cause measurable skin blanching. An occlusive patch, consisting of simple plastic wrap, was fixed with gauze and dermatological tape over all sites on both arms and left in place for two hours, after which the administered steroids were gently removed with cotton swabs. […] Finally, the skin was clinically assessed for evidence of irritation at the 26 hour evaluation.

[4] = In vitro permeation study of tritiated water through lased human skin; format: in vitro ADME; conditions: 50 mJ (1.6 J/cm^2) to 1250 mJ (40 J/cm^2); increase at low fluences up to about 5 J/cm^2, then more-or-less constant
Excerpt: Histology studies on rat and human skin, irradiated either in vivo or in vitro, show little or no evidence of ablation when Er:YAG laser pulse energies less than about 100-200 mJ are used. (See, e.g., FIG. 25).

[5] = Permeation of radiolabelled drugs through Er:YAG laser-irradiated human skin in Franz diffusion cells; format: in vitro ADME
Excerpt: The output of the Er:YAG laser was passed through an aperture to define it's diameter as 2 mm. Human skin, purchased from a skin bank, was positioned in Franz diffusion cells. The receptor chamber of the cell was filled with 0.9% buffered saline. A single pulse, of measured energy, was used to irradiate the skin in separate diffusion cells. Control skin was left unirradiated. […] In the case of γ-interferon, a 285 mJ pulse was used, and multiple samples were irradiated. […] In the case of cortisone, either 77 mJ or 117 mJ was used. After irradiation, a stirring magnet was place in the receptor chamber of the diffusion cells and the cells were placed in a heating block held at 37° C. […] The donor was left on the skin for the duration of the experiment. At various times post-drug-application, samples were taken from the receptor chamber and the amount of drug present was assayed with either a gamma-counter, or a liquid scintillation counter.

CCN(CC)CC(=O)Nc1c(C)cccc1C [Lidocaine, lidocaine]
pain on insertion of 26G-0.5 needle into lased site (30% liquid lidocaine solution applied topically for two minutes after 60 mJ pulse): no observable pain
pain on full insertion of 22G-1 needle into lased site (30% liquid lidocaine solution, 6-minute anesthetic treatment after 60 mJ pulse): no observable pain

CCCCC[C@H](O)/C=C/[C@H]1[C@H](O)CC(=O)[C@@H]1CCCCCCC(=O)O [alprostadil]
duration of erection [1]: more than 1 hour
time to erection [1]: approximately 35 minutes

C[C@]12C[C@H](O)[C@H]3[C@@H](CCC4=CC(=O)CC[C@@]43C)[C@@H]1CC[C@@H]2C(=O)CO [corticosterone]
permeation through irradiated skin versus unirradiated controls ([2]; 77 mJ/pulse (sub-ablative)): enhanced permeation
permeation through irradiated skin versus unirradiated controls ([2]; 117 mJ pulse): enhanced permeation

C[C@]12CCC(=O)C=C1CC[C@@H]1[C@@H]2[C@@H](O)C[C@@]2(C)[C@H]1CC[C@]2(O)C(=O)CO [hydrocortisone]
erythema (reddening) of skin, chromameter measurements ([3]; 1% hydrocortisone ointment on spots lased at 40, 80, 120 mJ, occluded two hours, 2-26 hours post-irradiation): reddening was less than that seen in the control spots
clinical assessment for irritation ([3]; 26 hour evaluation): no problems were seen

[3H]O[3H] [tritiated water]
permeation through lased human skin [4]: increase in permeation

B1: γ-Interferon: radiolabelled gamma-interferon diluted in buffered saline (protein, UniProt P01579 24-161, looked up)
Interferon gamma: QDPYVKEAENLKKYFNAGHSDVADNGTLFLGILKNWKEESDRKIMQSQIVSFYFKLFKNFKDDQSIQKSVETIKEDMNVKFFNSNKKKRDDFEKLTNYSVTDLNVQRKAIHELIQVMAELSPAAKTGKRKRSQMLFRG
modifications: radiolabel
notes: radiolabelled gamma-interferon diluted in buffered saline
Permeability Constant, kp [5]: 9.74 +/− 2.05 ×10^−3 cm/hr
